Like-named read-outs stand apart in the source and are kept apart here. *1 amine or outer side, *2 acyl side, *3 side chain or, on linkers, in order; H or OH if unused. Where a SMILES comes first, the peptide text is derived from it. Side-chain parts run from the residue outwards. [ ]: non-standard residue; d: D form. The star is where a group is joined. Ethylenediamine = C(CN[*:2])N[*:1]; Hyp = O=C(O)[C@@H]1C[C@@H](O)CN1; Phg = N[C@H](C(=O)O)c1ccccc1; CO = O=C([*:1])[*:2]; Bn = c1ccc(C*)cc1
Key:
[1] = HbA1c and fasting plasma glucose monitoring; format: in vivo, human
Procedure: (§1) Safety was assessed by recording all AEs, as well as by regular monitoring of vital signs, physical condition, body weight, hematology and blood chemistry. HbA1c levels were recorded at extension baseline and then every 16 weeks. HbA1c categories were: <upper limit of normal (ULN; normal defined as <5.7 %), between the ULN and 7 %, between 7 and 9 %, and over 9 %.
(§2) Patient visits occurred every 2 weeks for the first 3 months and then every 3 months for assessments of UFC, serum cortisol, plasma ACTH, hematology, blood chemistry, HbA1c, electrocardiogram (ECG) and vital signs. Patients were referred to a diabetes specialist for evaluation and appropriate management if any of the following were present: […]

[2] = system: urinary free cortisol (UFC); test: 24-h urinary free cortisol (UFC), ECLIA after dichloromethane extraction, extension study; format: in vivo, human
Procedure: (§3) The primary efficacy outcome was the proportion of patients with normalized UFC levels after 6 months of treatment (normal UFC range: 55–276 nmol/24 h; 20–100 μg/24 h). Secondary objectives included assessment of the safety and tolerability of multiple doses of pasireotide and trough plasma concentrations of pasireotide after chronic dosing.
Patients were classified as ‘UFC responders’ if their mean UFC level at month 6 was in the normal range; as ‘UFC reducers’ if their mean UFC level at month 6 was lower than that at core study baseline but not within normal limits; and as ‘UFC non-reducers’ if their mean UFC level at month 6 was equal to or higher than that at core study baseline or if the mean UFC level at month 6 was missing. Patients who discontinued prior to month 6 were classified as non-responders.
(§4) Blood samples for serum cortisol, plasma ACTH and pharmacokinetic assessments were collected before the morning pasireotide dose on study visit days. UFC assays were conducted in two central laboratories, one in Europe and the other in the US. Serum cortisol and plasma ACTH assays were assessed centrally by one laboratory (see Supplementary Material for further details).
(§5) UFC levels were measured with two 24-hour urine specimens collected in the 48 hours prior to core baseline and at study visits during the extension study. Serum cortisol was measured with electrochemiluminescence immunoassay (ECLIA), using the Elecsys® cortisol reagent kit (Roche Diagnostics, Indianapolis, IN, USA), which has a lower limit of quantification (LLOQ) of […] (0.018 μg/dL) and intra- and inter-assay coefficients of variation of 1.2% and 1.4%, respectively. UFC levels were measured with ECLIA, using the Elecsys® cortisol reagent kit with prior dichloromethane extraction to reduce the amount of cortisol metabolites and conjugates.

[3] = system: patients with Cushing's disease; test: Adverse events and discontinuations in the extension study; format: in vivo, human
Procedure: as §1

[4] = system: urinary free cortisol (UFC); conditions: 15-day core study, 600 μg sc bid, cited from earlier work
serum cortisol = test: Serum cortisol, ECLIA (Elecsys), pre-morning-dose samples; format: in vivo, human
Procedure: as §4, §5

sst3 = system: sst3; set-up: method as in PMID 11980628; conditions: cited from earlier work
[5] = system: patients with Cushing's disease; test: Electrocardiogram intervals; format: in vivo, human; conditions: number of patients
From the text: as §2

sst2 = system: sst2; set-up: method as in PMID 11980628; conditions: cited from earlier work
sst5 = system: sst5; set-up: method as in PMID 11980628; conditions: cited from earlier work
[6] = Trough plasma concentration of pasireotide, radioimmunoassay; format: in vivo, human; conditions: for level at 4320 h: human, read-out: Ctrough, mean ± SD
Procedure: as §3, §4
(§6) Plasma ACTH was assayed with the Immulite® 2000 ACTH kit (DPC, Los Angeles, CA, USA), which has a lower limit of detection of 9 pg/mL (1.98 pmol/L) and intra- and inter-assay coefficients of variation of 7.7% and 8.5%, respectively. Pasireotide plasma concentrations were measured using a validated radioimmunoassay with an LLOQ of 150 pg/mL.

sst1 = conditions: cited from earlier work
plasma ACTH = test: Plasma ACTH, Immulite 2000 ACTH kit, pre-morning-dose samples; format: in vivo, human; conditions: Day 15, n=18, normal <10
Procedure: as §4, §6

[7] = at some point during the extension, of six shifted
[8] = of 16 with normal FPG at extension baseline, at some point
[9] = safety population n=19, regardless of study-drug relationship

NCCCC[C@@H]1NC(=O)[C@@H](Cc2c[nH]c3ccccc23)NC(=O)[C@H](c2ccccc2)NC(=O)[C@@H]2C[C@@H](OC(=O)NCCN)CN2C(=O)[C@H](Cc2ccccc2)NC(=O)[C@H](Cc2ccc(OCc3ccccc3)cc2)NC1=O [pasireotide] (cyclo([Hyp]([CO-Ethylenediamine])[Phg][dW]KY(Bn)F))
Patients with HbA1c shifted to a higher category with levels <7% [1, 7]: three
Patients with HbA1c shifted to between 7% and 9% [1, 7]: three
Patients with post-baseline HbA1c shifted to a higher category ([1]; at some point during the extension, eight with baseline values): Six
Shifts to levels of HbA1c >9% ([1]; during the extension): no shifts
Patients with an increase in fasting plasma glucose level at some point during the extension ([1]; in vivo): All patients
Patients with improved FPG levels at their last assessment ([1]; in vivo): All patients
Patients whose FPG shifted to between 100 and <126 mg/dL (5.6 to <7.0 mmol/L) [1, 8]: six
Patients whose FPG shifted to between 126 and <200 mg/dL (7.0 to <11.1 mmol/L) [1, 8]: four
Patients whose FPG shifted to ≥200 mg/dL (≥11.1 mmol/L) [1, 8]: six
Patients with HbA1c shifted to >ULN but <7% at last assessment ([1]; of five remaining higher): four
Patients with HbA1c shifted to between 7% and 9% at last assessment ([1]; of five remaining higher): one
Patients remaining at a higher post-baseline HbA1c level at last assessment ([1]; of the six shifted): Five
UFC, mean ± SD ([2]; Day 15, n=17, primary efficacy population, normal 55–276): 522 ± 302 nmol/24 h
Proportion of patients with normal UFC levels (UFC responders) ([2]; Month 6, 4 of 18 patients, primary efficacy analysis, 95 % CI 6.4–47.6): 22.2%
Proportion of patients with reduction in mean UFC but not to within normal range (UFC reducers) ([2]; Month 6, 6 of 18 patients): 33.3%
Proportion of patients with lower UFC than at core baseline ([2]; Month 6, 10 of 18 patients): 56%
UFC, mean ± SD ([2]; Month 6, n=11, primary efficacy population): 421 ± 340 nmol/24 h
UFC, mean ± SD ([2]; Month 12, n=4, primary efficacy population): 398 ± 220 nmol/24 h
UFC, mean ± SD ([2]; Month 24, n=4, primary efficacy population): 514 ± 456 nmol/24 h
Number of patients with >50 % reduction in mean UFC from core baseline ([2]; Month 24, of four patients on study drug): three
Number of patients with normalized UFC ([2]; Month 24, of the four patients who remained on study drug): one
Hyperglycemia-related AEs, proportion of patients ([3]; 13/19, treatment period): 68%
Deaths during the study ([3]; in vivo): No patients died
Patients with grade 4 AEs ([3]; increased γ-glutamyltransferase, type 2 diabetes mellitus, both suspected drug related): Two
Patients with at least one AE during the study ([3]; n=19): All patients
Patients reporting a hyperglycemia-related adverse event ([3]; of 19): Thirteen
Discontinuation because of AE (new-onset type 2 diabetes mellitus) ([3]; one of 19 patients): 5.3%
Adverse event: Abdominal pain [3, 9]: 9 (47.4) n (%)
Adverse event: Diarrhea [3, 9]: 13 (68.4) n (%)
Adverse event: Dizziness [3, 9]: 5 (26.3) n (%)
Adverse event: Fatigue [3, 9]: 5 (26.3) n (%)
Adverse event: Headache [3, 9]: 7 (36.8) n (%)
Adverse event: Hyperglycemia [3, 9]: 11 (57.9) n (%)
Adverse event: Injection-site pain [3, 9]: 6 (31.6) n (%)
Adverse event: Injection-site pruritus [3, 9]: 5 (26.3) n (%)
Adverse event: Nausea [3, 9]: 12 (63.2) n (%)
Discontinuation because of unsatisfactory therapeutic effect ([3]; three of 19 patients, after 5–10 months): 15.8%
Discontinuation because of abnormal laboratory value ([3]; two of 19 patients: one increased HbA1c and glucose, one elevated UFC): 10.5%
Proportion of patients with reduced UFC levels ([4]; 22/29 patients): 76%
Proportion of patients with normalized UFC ([4]; five patients): 17%
Serum cortisol, mean ± SD (serum cortisol; Day 15, n=18, normal 221–690 (09:00 h)): 698 ± 161 nmol/L
Serum cortisol, mean ± SD (serum cortisol; Month 6, n=11): 559 ± 300 nmol/L
Affinity for sst3 (sst3): high affinity
Newly occurring QT of 450–480 ms [5]: One patient
Newly occurring QTcB of 450–480 ms [5]: another patient
QRS interval of >110 ms (not clinically significant) [5]: one patient
Affinity for sst2 (sst2): high affinity
Affinity for sst5 (sst5): highest affinity
Ctrough ([6]; Month 6, UFC non-reducers, n=1): 5.2 ng/mL
level at 4320 h ([6]; Month 6, UFC reducers, n=6, SD): 19.1 ± 10.9 ng/mL
level at 4320 h ([6]; Month 6, UFC responders, n=4, LLOQ 150 pg/mL, SD): 17.4 ± 11.6 ng/mL
Affinity for sst1 (sst1): high affinity
Plasma ACTH, mean ± SD (plasma ACTH): 12.4 ± 8.9 pmol/L

— PMC4085509, “Extended treatment of Cushing’s disease with pasireotide: results from a 2-year, Phase II study” (Pituitary, 2013)
